Calls of active or inactive are those of the source. The rule behind the calls is not given here.
Columns and labels:
Hep 3B2 [1] = assay: Induction of autophagic flux in human Hep3B cells harbouring mCherry-egfp-LC3 assessed as increase in yellow puncta ratio at 10 nM by fluorescence imaging based assay; format: functional, cell-based
Hep 3B2 [2] = assay: Induction of autophagic flux in human Hep3B cells assessed as rescue of p62 at 10 uM incubated for 48 hrs in presence of gamabufotalin by Western blot analysis; format: functional, cell-based
Hep 3B2 [3] = assay: Induction of autophagic flux in human Hep3B cells assessed as rescue of LC3-I accumulation at 10 uM incubated for 48 hrs in presence of gamabufotalin by Western blot analysis; format: functional, cell-based
Huh-7 [4] = assay: Induction of apoptosis in human Huh-7 cells assessed as early apoptotic cells at 10 nM incubated for 48 hrs by Annexin V-FITC/PI staining based flow cytometry method (reference value: 2.8%); format: functional
Hep 3B2 [5] = assay: Induction of apoptosis in human Hep3B cells assessed as decrease in bcl-2 level at 10 nM incubated for 48 hrs in presence of gamabufotalin by immunoblot analysis; format: functional, cell-based
Huh-7 [6] = assay: Induction of apoptosis in human Huh-7 cells assessed as increase in PARP level at 10 nM incubated for 48 hrs in presence of gamabufotalin by immunoblot analysis; format: functional, cell-based
Hep 3B2 [7] = assay: Induction of morphological changes in human Hep3B cells assessed as round cell morphology at upto 25 nM incubated for 48 hrs by bright field imaging analysis; format: functional, cell-based
Hep 3B2 [8] = assay: Induction of morphological changes in human Hep3B cells assessed as adherent cells at upto 25 nM incubated for 48 hrs by bright field imaging analysis; format: functional, cell-based
Hep 3B2 [9] = assay: Induction of apoptosis in human Hep3B cells assessed as viable cells at 15 nM incubated for 48 hrs by Annexin V-FITC/PI staining based flow cytometry method (reference value: 93.3%); format: functional; details: read-out: Activity
Hep 3B2 [10] = assay: Induction of apoptosis in human Hep3B cells assessed as late apoptotic cells at 20 nM incubated for 48 hrs by Annexin V-FITC/PI staining based flow cytometry method (reference value: 2.6%); format: functional
Hep 3B2 [11] = assay: Induction of apoptosis in human Hep3B cells assessed as late apoptotic cells at 25 nM incubated for 48 hrs by Annexin V-FITC/PI staining based flow cytometry method (reference value: 2.6%); format: functional
Huh-7 [12] = assay: Induction of apoptosis in human Huh-7 cells assessed as necrotic cells at 25 nM incubated for 48 hrs by Annexin V-FITC/PI staining based flow cytometry method (reference value: 95.4%); format: functional
Huh-7 [13] = assay: Induction of apoptosis in human Huh-7 cells assessed as early apoptotic cells at 20 nM incubated for 48 hrs by Annexin V-FITC/PI staining based flow cytometry method (reference value: 1.7%); format: functional
Huh-7 [14] = assay: Induction of apoptosis in human Huh-7 cells assessed as necrotic cells at 15 nM incubated for 48 hrs by Annexin V-FITC/PI staining based flow cytometry method (reference value: 0.7%); format: functional
Huh-7 [15] = assay: Induction of apoptosis in human Huh-7 cells assessed as fragmented nuclei at upto […] incubated for 48 hrs by Hoechst33258 staining based fluorescence microscopy; format: functional, cell-based
Hep 3B2 [16] = assay: Induction of apoptosis in human Hep3B cells assessed as increase in cleaved PARP expression at upto 25 nM incubated for 48 hrs by Western blot analysis; format: functional, cell-based
Hep 3B2 [17] = assay: Induction of apoptosis in human Hep3B cells assessed as increase in caspase-3 expression at upto 25 nM incubated for 48 hrs by Western blot analysis; format: functional, cell-based
Huh-7 [18] = assay: Induction of apoptosis in human Huh-7 cells assessed as viable cells at 25 nM measured after 48 hrs by annexin V-FITC/Propidium iodide staining based flow cytometric analysis (reference value: 91.7%); format: functional; details: read-out: Activity
Huh-7 [19] = assay: Induction of apoptosis in human Huh-7 cells assessed as early apoptotic cells at 25 nM measured after 48 hrs in presence of z-VAD-FMK by annexin V-FITC/Propidium iodide staining based flow cytometric analysis (reference value: 2.2%); format: functional
Huh-7 [20] = assay: Induction of autophagic flux in human Huh-7 cells assessed as increase in intracellular vesicles at 25 nM incubated for 48 hrs by transmission electron microscopic analysis; format: functional, cell-based
Hep 3B2 [21] = assay: Induction of autophagic flux in human Hep3B cells assessed as increase in LC3-I expression at upto 25 nM incubated for 48 hrs by Western blot analysis; format: functional, cell-based
Huh-7 [22] = assay: Induction of autophagic flux in human Huh-7 cells assessed as increase in LC3-I expression at upto 25 nM incubated for 48 hrs by Western blot analysis; format: functional, cell-based
Hep 3B2 [23] = assay: Induction of autophagic flux in human Hep3B cells assessed as rescue of p62 at 25 uM incubated for 48 hrs in presence of chloroquine by Western blot analysis; format: functional, cell-based
Huh-7 [24] = assay: Induction of apoptosis in human Huh-7 cells assessed as viable cells at 25 nM incubated for 48 hrs in presence of chloroquine by Annexin V-FITC/PI staining based flow cytometry method (reference value: 91.5%); format: functional; details: read-out: Activity
Huh-7 [25] = assay: Induction of apoptosis in human Huh-7 cells assessed as increase in cleaved PARP level at 25 nM incubated for 48 hrs in presence of chloroquine by immunoblot analysis; format: functional, cell-based
Huh-7 [26] = assay: Induction of apoptosis in human Huh-7 cells assessed as increase in caspase-3 level at 25 nM incubated for 48 hrs in presence of chloroquine by immunoblot analysis; format: functional, cell-based
Huh-7 [27] = assay: Induction of apoptosis in human Huh-7 cells assessed as viable cells at 25 nM incubated for 48 hrs by Annexin V-FITC/PI staining based flow cytometry method (reference value: 90.0%); format: functional; details: read-out: Activity
Huh-7 [28] = assay: Induction of apoptosis in human Huh-7 cells assessed as upregulation of bax level […] incubated for 48 hrs in presence of 4,6-dimorpholino-N-(4-nitrophenyl)-1,3,5-triazin-2-amine by immunoblot analysis; format: functional, cell-based
Huh-7 [29] = assay: Induction of autophagy in human Huh-7 cells assessed as rescue of mTOR phosphorylation level at upto 25 nM incubated for 48 hrs in presence of chloroquine by immunoblot method; format: functional, cell-based
Hep 3B2 [30] = assay: Induction of autophagy in human Hep3B cells assessed as restoration of ULK1 phosphorylation expression at 25 uM incubated for 48 hrs in presence of 4,6-dimorpholino-N-(4-nitrophenyl)-1,3,5-triazin-2-amine by immunoblot analysis; format: functional, cell-based
Hep 3B2 [31] = assay: Induction of autophagy in human Hep3B cells assessed as upregulation of p62 at 25 uM incubated for 48 hrs in presence of 4,6-dimorpholino-N-(4-nitrophenyl)-1,3,5-triazin-2-amine by immunoblot analysis; format: functional, cell-based
Huh-7 [32] = assay: Induction of autophagic flux in human Huh-7 cells harbouring mCherry-egfp-LC3 assessed as reduction in number of yellow puncta ratio at 25 nM incubated for 15 mins in presence of chloroquine by laser scanning confocal microscopic analysis; format: functional, cell-based
Hep 3B2 [33] = assay: Antitumor activity against human Hep3B cells xenografted in nude mouse model assessed as decrease in tumor weight at 5 mg/kg,ip administered every second day for 3 weeks by vernier caliper method; format: functional, organism-based
[34] = Toxicity in mouse assessed as effect on lungs at 5 mg/kg,ip administered every second day for 3 weeks by H and E staining based microscopic method; format: organism-based; details: in vivo, 504 h
[35] = Toxicity in mouse assessed as effect on serum BUN level at 5 mg/kg,ip administered every second day for 3 weeks by H and E staining based microscopic method; format: organism-based; details: in vivo, 504 h

## CCN(CC)CCCC(C)Nc1ccnc2cc(Cl)ccc12 (stereo not given) [CHLOROQUINE]
Hep 3B2 [1]
  Activity: Active
Hep 3B2 [2]
  Activity: Active
Hep 3B2 [3]
  Activity: Active
Huh-7 [4]
  Activity: 2.9%
Hep 3B2 [5]
  Activity: Active
Huh-7 [6]
  Activity: Active

## C[C@]12CC[C@H](O)C[C@H]1CC[C@@H]1[C@@H]2[C@H](O)C[C@]2(C)[C@@H](c3ccc(=O)oc3)CC[C@]12O [GAMABUFOTALIN]
Hep 3B2 [7]
  Activity: Active
Hep 3B2 [8]
  Activity: Active
Hep 3B2 [9]
  viability at 0.015 µM: 88.2%
Hep 3B2 [10]
  Activity: 5.2%
Hep 3B2 [11]
  Activity: 5.2%
Huh-7 [12]
  Activity: 57.1%
Huh-7 [13]
  Activity: 5.5%
Huh-7 [14]
  Activity: 4%
Huh-7 [15]
  Activity: Active
Hep 3B2 [16]
  Activity: Active
Hep 3B2 [17]
  Activity: Active
Huh-7 [18]
  viability at 0.025 µM: 72%
Huh-7 [19]
  Activity: 3.3%
Huh-7 [20]
  Activity: Active
Hep 3B2 [21]
  Activity: Active
Huh-7 [22]
  Activity: Active
Hep 3B2 [23]
  Activity: Active
Huh-7 [24]
  viability at 0.025 µM: 65.4%
Huh-7 [25]
  Activity: Active
Huh-7 [26]
  Activity: Active
Huh-7 [27]
  viability at 0.025 µM: 81.5%
Huh-7 [28]
  Activity: Active
Huh-7 [29]
  Activity: Active
Hep 3B2 [30]
  Activity: Active
Hep 3B2 [31]
  Activity: Active
Huh-7 [32]
  Activity: Active
Hep 3B2 [33]
  Activity: Active
[34]
  Activity: Non-Toxic
[35]
  Activity: Non-Toxic

From ChEMBL document CHEMBL5257089, “Gamabufotalin Induces Apoptosis and Cytoprotective Autophagy through the mTOR Signaling Pathway in Hepatocellular Carcinoma” (J Nat Prod, 2023)
